Reference: patent US20210213135A1 (Purdue Research Foundation, priority 2018, published 2021)

Assays:
[1] = test system: Swiss Webster fracture-bearing mice (healed femur); assay: postmortem 4 point bend of the healed femur; assay type: in vivo; settings: 1, 10 and 100 nmol daily s.c., n=5
Source text: All in vivo data included herein are from Swiss Webster mice. All mice received an osteotomy on their right femur and received subcutaneous drug administration daily for either 2,3 or 4 weeks, or 17 days, as indicated, for each compound. 1× concentration represents 1 nmol/day, 10× represents 10 nmol/day, 100× represents 100 nmol/day most studies have an n of 5.
The term “Peak Load” means a postmortem 4 point bend of the healed femur. Peak load represents the maximum force the healed femur withstood before it refractured.
The targeted conjugates were synthesized using standard Fmoc solid-phase peptide synthesis, as described above. To ensure the conjugates' activity, mouse pre-osteoblast ([…]) cells were treated with the targeted and untargeted compounds for three days at concentrations from 1 pM to 100 nM. After three days of treatment, the cells were harvested, and the RNA was purified from the cells. Expression levels of ALP, RUNx2 (transcription factor for osteoblast differentiation), osterix (OSX), osteopontin (OPN), collagen 1A (Col-1A), OPG, RANKL, sclerostin gene (SOST), and OC were quantified via quantitative reverse transcription polymerase chain reaction (RT-qPCR). Once the biological activity of the conjugates was confirmed, they were tested in vivo in a fracture model. Aseptic surgical techniques were used to place a 23-gage needle as in intramedullary nail in the femur of anesthetized, 12-week-old Swiss Webster mice for internal fixation before fracture. Femur fractures were induced using a drop weight fracture device from RISystem. The mice received buprenorphine for three days post fracture. The mice were dosed subcutaneously each day for three weeks or 17 days. Fracture healing was assessed using microCT (Scanco Medical Ag). Morphometric parameters were quantified in the 100 widest slices of the fracture callus. Trabecular thickness (Tb.Th.), trabecular spacing (Tb.Sp.), total volume (TV), and volume of calcified callus (BV) were calculated. Fractured femurs were tested for strength in a four-point bend to failure using an Electro Force TestBench (TA Instruments). Lower supports were 10 mm apart on the anterior face of the femur in contact with the proximal and distal diaphysis. Upper supports were 4 mm apart and spanned the entire fracture callus on the diaphysis. Force was applied from the posterior face of the femur with a displacement rate of 0.3 mm/sec. Peak load, yield load, stiffness, displacement post yield, work to fracture, and deformation data were generated. Statistical analysis was performed using a two-way analysis of variance (ANOVA) and a Tukey post-hoc analysis with significance reported at the 95% confidence level. All animal experiments were performed in accordance with protocols approved by Purdue University's Institutional Animal Care and Use Committee (IACUC).

[2] = test system: Swiss Webster fracture-bearing mice (fracture callus); assay: micro CT of the fracture callus in the femur fracture model; assay type: in vivo; settings: 1, 10 and 100 nmol daily s.c., n=5

Question: “P-15_mp4_(D)E10: SEQ ID NO: 23, a P15 fragment connect via 4 peg2 spacers to (D)E10 bone targeting ligand (HGTPGPQGIAGQRGVVEEEEEEEEEE; 4 PEG2 spacers; D-glutamic acids; P15_mp4_e10)” was tested. Which “Max load (peak load)” value ([1]; 3 weeks) did it give?
Answer: raises bone strength

Question: And the Work to fracture ([1]; 3 weeks)?
Answer: raises bone strength

Question: What about the “BV (bone volume)” value ([2]; 3 weeks) of the same substance?
Answer: raises bone mineralization

Question: What about the BV/TV ([2]; 3 weeks) of the same substance?
Answer: raises bone density

Question: “P3_mp4_(D)E10: SEQ ID NO: 29, P3 fragment of bone sialoprotein followed by a 4 minipeg spacer and 10 (D) glutamic acids (HYESENGEPRGDNYRAYEEEEEEEEEE; 4 minipeg spacer; D-glutamic acids; P3_mp4_e10)” was tested. Which “Max load (peak load)” value ([1]; 17 days) did it give?
Answer: raises bone strength

Question: And the Work to fracture ([1]; 17 days)?
Answer: raises bone strength

Question: And the “BV (bone volume)” value ([2]; 17 days)?
Answer: raises bone mineralization

Question: What about the BV/TV ([2]; 17 days) of the same substance?
Answer: raises bone density
